Reference: US20260242335A1, “HETEROCYCLOALKYL BETA-HYDROXY ALKYL AMINES FOR USE IN THE TREATMENT OF HYPERGLYCAEMIA AND DISORDERS CHARACTERISED BY HYPERGLYCAEMIA” (ATROGI AB, priority 2023, published 2026)
Structures can show the parent of a compound that is named as a salt.

What was measured:
L6-myotubes [1] = experiment: Glucose uptake (3H-2-deoxyglucose) in differentiated L6-myotubes, compared to isoproterenol; assay type: cell-based; conditions: compound at 10 μM vs isoproterenol at 10 μM, read-out: Biological example 1: glucose uptake activity compared to that of isoproterenol
Protocol: (§1) L6-myoblasts were grown in Dulbecco's Modified Eagle's Medium (DMEM) containing 1 g/L glucose supplemented with 10% fetal bovine serum, 2 mM L-Glutamine, 50 U/mL penicillin, […] streptomycin and 10 mM HEPES. Cells were plated at 1×10^5 cells per mL in 24-well plates. After reaching 90% confluence the cells were grown in medium containing 2% FBS for 7 days where upon cells differentiated into myotubes.
Differentiated L6-myotubes were serum-starved overnight in medium containing 0.5% fatty-acid free BSA and stimulated with an agonist, with a final concentration of 1×10^−5 M. After 1 h 40 min the cells were washed with warm glucose free medium or PBS twice and another portion of agonist was added to the glucose free medium. After 20 min the cells were exposed to 50 nM ^3H-2-deoxyglucose for another 10 min before washed in ice cold glucose free medium or PBS three times and lysed in 400 μL/well 0.2 M NaOH for 1 h at 60° C. The cell lysate was mixed with 4 mL scintillation buffer (Emulsifier Safe, Perkin Elmer) and the radioactivity was detected in a p-counter (Tri-Carb 4810TR, Perkin Elmer). The activity for each compound is compared to that of isoproterenol.

L6-myotubes [2] = experiment: Measurement of intracellular cAMP levels (alpha screen cAMP kit) in differentiated cells, compared to isoproterenol; assay type: cell-based; conditions: 0.25 h, compound at 10 μM vs isoproterenol at 10 μM, 15 min stimulation, read-out: Biological example 2: intracellular cAMP level activity compared to that of isoproterenol
Protocol: as §1
Differentiated cells were serum-starved overnight and stimulated with an agonist, final concentration 1×10^−5 M, for 15 min in stimulation buffer (HBSS supplemented with 1% BSA, 5 mM HEPES and 1 mM IBMX, pH 7.4). The medium was aspirated and 100 μL of 95% EtOH was added to each well of the 24-well plate and cells were kept at −20° C. overnight. The EtOH was allowed to evaporate and 500 μL of lysis buffer (1% BSA, 5 mM HEPES and 0.3% Tween-20, pH 7.4) was added to each well. The plate was kept at −80° C. for 30 min and then at −20° C. until the day of detection when the samples were thawed. Intracellular cAMP levels were detected using an alpha screen cAMP kit (6760635D from Perkin Elmer). The activity for each compound is compared to that of isoproterenol.

CC(C)(C[C@@H]1CCNC(=O)C1)NC[C@H](O)c1cncc(F)c1 [Example 55, (S)-4-(2-(((R)-2-(5-Fluoropyridin-3-yl)-2-hydroxyethyl)amino)-2-methylpropyl)piperidin-2-one]
Emax at 10 µM (L6-myotubes [1]): > 75%
Emax at 10 µM (L6-myotubes [2]): 50 to 75%

CC(=O)N1CC[C@H](CC(C)(C)NC[C@H](O)c2cncc(F)c2)C1 [Example 62, 1-((R)-3-(2-(((R)-2-(5-Fluoropyridin-3-yl)-2-hydroxyethyl)amino)-2-methylpropyl)pyrrolidin-1-yl)ethan-1-one]
Emax at 10 µM (L6-myotubes [1]): > 75%
Emax at 10 µM (L6-myotubes [2]): < 25%

CC(C)(CC1CCN(C(=O)C(C)(C)C)CC1)NC[C@H](O)c1cncc(F)c1 [Example 47, (R)-1-(4-(2-((2-(5-Fluoropyridin-3-yl)-2-hydroxyethyl)amino)-2-methylpropyl)piperidin-1-yl)-2,2-dimethylpropan-1-one dihydrochloride]
Emax at 10 µM (L6-myotubes [1]): 50 to 75%
Emax at 10 µM (L6-myotubes [2]): < 25%

CC(C)(CC1CCN(S(C)(=O)=O)CC1)NC[C@H](O)c1cccc(F)c1 [Example 31, (R)-1-(3-Fluorophenyl)-2-((2-methyl-1-(1-(methylsulfonyl)piperidin-4-yl)propan-2-yl)amino)ethan-1-ol hydrochloride]
Emax at 10 µM (L6-myotubes [1]): 50 to 75%
Emax at 10 µM (L6-myotubes [2]): < 25%

CC(C)(C[C@@H]1CCNC(=O)C1)NC[C@H](O)c1cccc(F)c1 [Example 53, (S)-4-(2-(((R)-2-(3-Fluorophenyl)-2-hydroxyethyl)amino)-2-methyl-propyl)piperidin-2-one]
Emax at 10 µM (L6-myotubes [1]): > 75%
Emax at 10 µM (L6-myotubes [2]): > 75%

CC(=O)N1CC[C@@H](CC(C)(C)NC[C@H](O)c2cncc(F)c2)C1 [Example 70, 1-((S)-3-(2-(((R)-2-(5-Fluoropyridin-3-yl)-2-hydroxyethyl)amino)-2-methylpropyl)pyrrolidin-1-yl)ethan-1-one]
Emax at 10 µM (L6-myotubes [1]): > 75%
Emax at 10 µM (L6-myotubes [2]): < 25%

CC(C)(C[C@@H]1CCCN(C(=O)OC(C)(C)C)C1)NC[C@H](O)c1cccc(C(F)(F)F)n1 [Example 20, tert-Butyl (S)-3-(2-(((S)-2-hydroxy-2-(6-(trifluoromethyl)pyridin-2-yl)-ethyl)amino)-2-methylpropyl)piperidine-1-carboxylate]
Emax at 10 µM (L6-myotubes [1]): > 75%
Emax at 10 µM (L6-myotubes [2]): < 25%

CC(C)(C[C@@H]1CCC(=O)NC1)NC[C@H](O)c1cccc(F)c1 [Example 36, (S)-5-(2-(((R)-2-(3-Fluorophenyl)-2-hydroxyethyl)amino)-2-methyl-propyl)piperidin-2-one hydrochloride]
Emax at 10 µM (L6-myotubes [1]): 50 to 75%
Emax at 10 µM (L6-myotubes [2]): < 25%

CNC(=O)N1CCC(CC(C)(C)NC[C@H](O)c2cncc(F)c2)CC1 [Example 51, (R)-4-(2-((2-(5-Fluoropyridin-3-yl)-2-hydroxyethyl)amino)-2-methyl-propyl)-N-methylpiperidine-1-carboxamide dihydrochloride]
Emax at 10 µM (L6-myotubes [1]): 50 to 75%
Emax at 10 µM (L6-myotubes [2]): < 25%

CC(C)(C[C@@H]1CCNC1=O)NC[C@H](O)c1cccc(F)c1 [Example 77, (S)-3-(2-(((R)-2-(3-Fluorophenyl)-2-hydroxyethyl)amino)-2-methyl-propyl)pyrrolidin-2-one hydrochloride]
Emax at 10 µM (L6-myotubes [1]): 50 to 75%
Emax at 10 µM (L6-myotubes [2]): < 25%

CC(C)(C[C@H]1CCN(C(=O)OC(C)(C)C)C1)NC[C@H](O)c1cncc(F)c1 [Example 60, tert-Butyl (R)-3-(2-(((R)-2-(5-fluoropyridin-3-yl)-2-hydroxyethyl)-amino)-2-methylpropyl)pyrrolidine-1-carboxylate]
Emax at 10 µM (L6-myotubes [1]): 50 to 75%
Emax at 10 µM (L6-myotubes [2]): < 25%

CC(C)(C[C@@H]1CCCNC1)NC[C@H](O)c1cccc(C(F)(F)F)n1 [Example 21, (S)-2-((2-Methyl-1-((S)-piperidin-3-yl)propan-2-yl)amino)-1-(6-(trifluoromethyl)pyridin-2-yl)ethan-1-ol]
Emax at 10 µM (L6-myotubes [1]): 50 to 75%
Emax at 10 µM (L6-myotubes [2]): < 25%

CC(C)(C[C@@H]1CCNC1)NC[C@H](O)c1cccc(F)c1 [Example 65, (R)-1-(3-Fluorophenyl)-2-((2-methyl-1-((S)-pyrrolidin-3-yl)propan-2-yl)amino)ethan-1-ol]
Emax at 10 µM (L6-myotubes [1]): > 75%
Emax at 10 µM (L6-myotubes [2]): > 75%

COC(=O)N1CCC[C@@H](CC(C)(C)NC[C@H](O)c2cncc(F)c2)C1 [Example 17, Methyl (S)-3-(2-(((R)-2-(5-fluoropyridin-3-yl)-2-hydroxyethyl)amino)-2-methylpropyl)piperidine-1-carboxylate dihydrochloride]
Emax at 10 µM (L6-myotubes [1]): > 75%
Emax at 10 µM (L6-myotubes [2]): > 75%

CC(C)(CC1CCN(C(=O)C(F)(F)F)CC1)NC[C@H](O)c1cncc(F)c1 [Example 48, (R)-2,2,2-Trifluoro-1-(4-(2-((2-(5-fluoropyridin-3-yl)-2-hydroxyethyl)-amino)-2-methylpropyl)piperidin-1-yl)ethan-1-one dihydrochloride]
Emax at 10 µM (L6-myotubes [1]): 50 to 75%
Emax at 10 µM (L6-myotubes [2]): < 25%

CC(C)(C[C@H]1CCNC1=O)NC[C@H](O)c1cncc(F)c1 [Example 75, (R)-3-(2-(((R)-2-(5-Fluoropyridin-3-yl)-2-hydroxyethyl)amino)-2-methylpropyl)pyrrolidin-2-one dihydrochloride]
Emax at 10 µM (L6-myotubes [1]): 25 to 50%
Emax at 10 µM (L6-myotubes [2]): < 25%

CC(C)(C[C@H]1CCC(=O)NC1)NC[C@H](O)c1cccc(F)c1 [Example 38, (R)-5-(2-(((R)-2-(3-Fluorophenyl)-2-hydroxyethyl)amino)-2-methyl-propyl)piperidin-2-one hydrochloride]
Emax at 10 µM (L6-myotubes [1]): > 75%
Emax at 10 µM (L6-myotubes [2]): < 25%

CC(=O)N1CC[C@H](CC(C)(C)NC[C@H](O)c2cccc(F)c2)C1 [Example 58, 1-((R)-3-(2-(((R)-2-(3-Fluorophenyl)-2-hydroxyethyl)amino)-2-methylpropyl)pyrrolidin-1-yl)ethan-1-one]
Emax at 10 µM (L6-myotubes [1]): > 75%
Emax at 10 µM (L6-myotubes [2]): < 25%

CC(C)(C[C@@H]1CNC(=O)C1)NC[C@H](O)c1cccc(F)c1 [Example 72, (S)-4-(2-(((R)-2-(3-Fluorophenyl)-2-hydroxyethyl)amino)-2-methyl-propyl)pyrrolidin-2-one hydrochloride]
Emax at 10 µM (L6-myotubes [1]): > 75%
Emax at 10 µM (L6-myotubes [2]): 50 to 75%

CN(C)C(=O)N1CCC[C@@H](CC(C)(C)NC[C@H](O)c2cncc(F)c2)C1 [Example 18, (S)-3-(2-(((R)-2-(5-Fluoropyridin-3-yl)-2-hydroxyethyl)amino)-2-methylpropyl)-N,N-dimethylpiperidine-1-carboxamide dihydrochloride]
Emax at 10 µM (L6-myotubes [1]): > 75%
Emax at 10 µM (L6-myotubes [2]): < 25%

CC(C)(C[C@H]1CCNC1)NC[C@H](O)c1cccc(F)c1 [Example 57, (R)-1-(3-Fluorophenyl)-2-((2-methyl-1-((R)-pyrrolidin-3-yl)propan-2-yl)amino)ethan-1-ol]
Emax at 10 µM (L6-myotubes [1]): > 75%
Emax at 10 µM (L6-myotubes [2]): < 25%

CN1CCC(CC(C)(C)NC[C@H](O)c2cccc(F)c2)CC1 [Example 32, (R)-1-(3-Fluorophenyl)-2-((2-methyl-1-(1-methylpiperidin-4-yl)-propan-2-yl)amino)ethan-1-ol dihydrochloride]
Emax at 10 µM (L6-myotubes [1]): 50 to 75%
Emax at 10 µM (L6-myotubes [2]): < 25%

CC(C)(C[C@@H]1CCCN(C(=O)OC(C)(C)C)C1)NC[C@H](O)c1cncc(F)c1 [Example 11, tert-Butyl (S)-3-(2-(((R)-2-(5-fluoropyridin-3-yl)-2-hydroxyethyl)-amino)-2-methylpropyl)piperidine-1-carboxylate]
Emax at 10 µM (L6-myotubes [1]): > 75%
Emax at 10 µM (L6-myotubes [2]): > 75%

CC(C)(C[C@@H]1CCC(=O)NC1)NC[C@H](O)c1cncc(F)c1 [Example 37, (S)-5-(2-(((R)-2-(5-Fluoropyridin-3-yl)-2-hydroxyethyl)amino)-2-methylpropyl)piperidin-2-one hydrochloride]
Emax at 10 µM (L6-myotubes [1]): > 75%
Emax at 10 µM (L6-myotubes [2]): < 25%

CC(C)(C[C@@H]1CCCNC1)NC[C@H](O)c1cccc(F)c1 [Example 2, (R)-1-(3-Fluorophenyl)-2-((2-methyl-1-((S)-piperidin-3-yl)propan-2-yl)amino)ethan-1-ol]
Emax at 10 µM (L6-myotubes [1]): > 75%
Emax at 10 µM (L6-myotubes [2]): 25 to 50%

CC(C)(C[C@@H]1CCCOC1)NC[C@H](O)c1cccc(F)c1 [Example 84, (R)-1-(3-Fluorophenyl)-2-((2-methyl-1-((S)-tetrahydro-2H-pyran-3-yl)propan-2-yl)amino)ethan-1-ol]
Emax at 10 µM (L6-myotubes [1]): > 75%
Emax at 10 µM (L6-myotubes [2]): 50 to 75%

CC(=O)N1CC[C@@H](CC(C)(C)NC[C@H](O)c2cccc(F)c2)C1 [Example 66, 1-((S)-3-(2-(((R)-2-(3-Fluorophenyl)-2-hydroxyethyl)amino)-2-methylpropyl)pyrrolidin-1-yl)ethan-1-one]
Emax at 10 µM (L6-myotubes [1]): > 75%
Emax at 10 µM (L6-myotubes [2]): 25 to 50%
